Data published in US20240130675A1, “Methods for Treating Autism Spectrum Disorder” (The General Hospital Corporation, priority 2021, published 2024).

Test system: PgACC glutamate activity
Assay: PgACC glutamate activity by 2D-JPRESS 1H MRS at 4T, pre- and post-treatment
Type: in vivo, human
Method: Glutamate response to memantine therapy in the PgACC was assessed by acquiring spectroscopic MRI pre- and post-treatment.
Healthy Control Participants were enrolled for spectroscopic neuro-imaging data acquisition to form a control group. Healthy controls (HC) were age, sex, and IQ-matched with enrolled ASD participants. HC participants were with no significant autistic traits, as screened by SRS-2 raw score of<60, and with no major psychopathology, as established by the K-SADS-E and confirmed by clinical diagnostic interview.
Data Acquisition—Proton spectra were acquired at 4T using a two-dimensional J-resolved (2D-JPRESS) ^1HMRS protocol. A 2D-JPRESS sequence was chosen to improve reliability for spectral fitting of the metabolites(Gonenc et al., 2010; Moore et al., 2007), allow analysis of glutamate alone versus ratios or combined measures (e.g., Glx), and confirm that measured metabolic differences truly arise from differences in metabolic levels and not from T2 relaxation time differences. […] Data were collected in 12 TE-stepped spectra with the echo-time ranging from 30 to 250 ms in 20 ms increments, with TR=2s, averages=16, scan duration=7 minutes.
Data Processing: Spectral analysis was conducted in a fully automated fashion using the commercially available LCModel package (version 6.2-1F). After the 2D-JPRESS dataset was resolved into a series of one-dimensional spectra where each spectrum was modeled and fitted with GAMMA simulated96 J-resolved basis sets, glutamate activity levels were derived from the total integral across the J-series. Glutamate transverse relaxation time (T2) was obtained from the raw peak vs. TE decay curve fitted with Levenberg-Marquardt algorithm using an exponential decay function (for glutamate T2) convoluted with a polynomial function (for glutamate J-coupling) which was obtained from the GAMMA simulation run with previously measured spectral parameters (Govindaraju, Young, & Maudsley, 2000). Data quality was assessed by LCModel calculated Full Width Half Maximum (FWHM), Signal to Noise Ratio (SNR) and Cramer-Rao Lower Bounds (CRLB).
The primary outcome was analyzed using Pearson's chi-square test at the a priori defined significance level of 0.05. Secondary measures of efficacy were analyzed using mixed-effects regression models with robust standard errors to account for the repeated measures on each subject. The primary and secondary measures were compared between memantine versus placebo as well as between those with high versus normal baseline glutamate activity levels. Participants were categorized as having high versus normal glutamate activity levels at baseline using z-scores. The population mean and SD for z-score calculations were derived from healthy control glutamate activity levels (baseline and endpoint). Glutamate activity levels with z-scores≥1 were categorized as high glutamate activity levels, those with z-scores<1 and >−1 were categorized as normal glutamate activity levels and those with z-scores≤−1 were categorized as low glutamate activity levels. Changes in PgACC glutamate activity levels within groups were tested using paired t-tests and changes between groups were tested using two-sample t-tests. We also performed ROC curve analyses to determine the predictive utility of baseline PgACC glutamate activity levels in identifying treatment responders within the memantine and placebo groups. All analyses apart from the analysis of the primary outcome were considered exploratory. Analyses were performed using a modified intent-to-treat analysis set which included all randomized patients who were regarded exposed to study medication (completed at least two weeks of treatment) and had at least one follow-up assessment.

Q: How did the “PgACC Glutamate Activity BL” value (High-Glu ASD Sample, MEM Group N = 10, baseline) turn out when `CC12CC3CC(C)(C1)CC(N)(C3)C2` [MEM, memantine] was run?
A: Its value is 109.1 ± 11.9.

Q: And the “PgACC Glutamate Activity EP” value (High-Glu ASD Sample, MEM Group N = 10, endpoint)?
A: Its value is 78.7 ± 13.6.

Q: What about the “PgACC Glutamate Activity MD” value (High-Glu ASD Sample, MEM Group N = 10, mean difference BL to EP) of the same compound?
A: The value was −30.3 ± 23.3.

Q: What about the “PgACC Glutamate Activity ASD vs. HC MD @ EP” value (High-Glu ASD Sample, MEM Group N=10 vs HC N = 13) of the same compound?
A: Its value is −2.5 ± 34.3.

Q: What about the “PgACC Glutamate Activity ASD vs. HC MD @ BL” value (High-Glu ASD Sample, MEM Group N=10 vs HC N = 16) of the same compound?
A: The value was −32.5 ± 32.4.

Q: And the “PgACC Glutamate Activity BL” value (High-Glu ASD Sample, MEM Responders N = 8, baseline)?
A: Its value is 111.1 ± 12.5.

Q: And the “PgACC Glutamate Activity EP” value (High-Glu ASD Sample, MEM Responders N = 8, endpoint)?
A: The value was 75.8 ± 13.6.

Q: And the “PgACC Glutamate Activity MD” value (High-Glu ASD Sample, MEM Responders N = 8, mean difference BL to EP)?
A: Its value is −35.4 ± 23.5.

Q: And the “PgACC Glutamate Activity ASD vs. HC MD @ EP” value (High-Glu ASD Sample, MEM Responders N=8 vs HC N = 13)?
A: The value was 0.5 ± 35.7.

Q: What about the “PgACC Glutamate Activity ASD vs. HC MD @ BL” value (High-Glu ASD Sample, MEM Responders N=8 vs HC N = 16) of the same compound?
A: The value was −34.5 ± 34.4.

Q: And the “MD in Glu w/ Tx: MD MEM vs PBO” value (High-Glu ASD, MEM = 10 PBO = 8)?
A: The value was −21.5 ± 37.3.

Q: And the “MD in Glu w/ Tx: MD H-Glu vs N-Glu” value (MEM Group, H-Glu N = 10 vs N-Glu N = 5)?
A: The value was 32.2 ± 43.1.

Q: What about the “PgACC Glutamate Activity BL” value (Normal-Glu ASD Sample, MEM Group/Non-Responders N = 5, baseline) of the same compound?
A: The value was 84.1 ± 8.6.

Q: What about the “PgACC Glutamate Activity EP” value (Normal-Glu ASD Sample, MEM Group/Non-Responders N = 5, endpoint) of the same compound?
A: The value was 86.0 ± 2.8.

Q: What about the “PgACC Glutamate Activity MD” value (Normal-Glu ASD Sample, MEM Group/Non-Responders N = 5, mean difference BL to EP) of the same compound?
A: The value was 1.9 ± 10.8.

Q: And the “PgACC Glutamate Activity ASD vs. HC MD @ EP” value (Normal-Glu ASD Sample, MEM Group/Non-Responders N=5 vs HC N = 13)?
A: Its value is −9.7 ± 37.2.

Q: And the “MD in Glu w/ Tx: MD MEM vs PBO” value (Normal-Glu ASD, MEM = 5)?
A: Its value is −6.3 ± 24.1.

Q: What about the “PgACC Glutamate Activity ASD vs. HC MD @ BL” value (Unselected ASD Sample, MEM Group (MEM=19) vs HC N = 16) of the same compound?
A: The value was −19.8 ± 34.5^[MEM=19].

Q: What about the “PgACC Glutamate Activity BL” value (Unselected ASD Sample, MEM Group N = 15, baseline, mean ± SD) of the same compound?
A: The value was 100.8 ± 16.1.

Q: What about the “PgACC Glutamate Activity EP” value (Unselected ASD Sample, MEM Group N = 15, endpoint, mean ± SD) of the same compound?
A: Its value is 81.2 ± 11.6.

Q: And the “PgACC Glutamate Activity MD” value (Unselected ASD Sample, MEM Group N = 15, mean difference BL to EP)?
A: The value was −19.6 ± 25.1.

Q: What about the “PgACC Glutamate Activity ASD vs. HC MD @ EP” value (Unselected ASD Sample, MEM Group N=15 vs HC N = 13) of the same compound?
A: Its value is −4.9 ± 31.2.

Q: And the “PgACC Glutamate Activity BL” value (Unselected ASD Sample, MEM Non-responders N = 7, baseline)?
A: The value was 88.9 ± 10.9.

Q: What about the “PgACC Glutamate Activity EP” value (Unselected ASD Sample, MEM Non-responders N = 7, endpoint) of the same compound?
A: Its value is 87.3 ± 3.9.

Q: What about the “PgACC Glutamate Activity MD” value (Unselected ASD Sample, MEM Non-responders N = 7, mean difference BL to EP) of the same compound?
A: The value was −1.6 ± 10.7.

Q: What about the “PgACC Glutamate Activity ASD vs. HC MD @ EP” value (Unselected ASD Sample, MEM Non-responders N=7 vs HC N = 13) of the same compound?
A: Its value is −11.1 ± 33.1.

Q: What about the “PgACC Glutamate Activity ASD vs. HC MD @ BL” value (Unselected ASD Sample, MEM Non-responders N=7 vs HC N = 16) of the same compound?
A: Its value is −12.3 ± 34.9.

Q: What about the “PgACC Glutamate Activity BL” value (Unselected ASD Sample, MEM Responders N = 8, baseline) of the same compound?
A: Its value is 111.1 ± 12.5.

Q: And the “PgACC Glutamate Activity EP” value (Unselected ASD Sample, MEM Responders N = 8, endpoint)?
A: Its value is 75.8 ± 13.6.

Q: What about the “PgACC Glutamate Activity MD” value (Unselected ASD Sample, MEM Responders N = 8, mean difference BL to EP) of the same compound?
A: Its value is −35.4 ± 23.5.

Q: What about the “PgACC Glutamate Activity ASD vs. HC MD @ EP” value (Unselected ASD Sample, MEM Responders N=8 vs HC N = 13) of the same compound?
A: Its value is 0.48 ± 35.7.

Q: What about the PgACC Glutamate Activity ASD vs. HC MD @ BL (Unselected ASD Sample, MEM Responders N=8 vs HC N = 16) of the same compound?
A: Its PgACC Glutamate Activity ASD vs. HC MD @ BL is -34.5 ± 34.4.

Q: What about the “MD in Glu w/ Tx: MD MEM vs PBO” value (Unselected ASD, MEM = 15, PBO = 16) of the same compound?
A: The value was −12.2 ± 38.3.

Q: What about the “Magnitude of PgACC glutamate reduction, memantine versus placebo” value (high glutamate sample) of the same compound?
A: Its value is “significantly higher”.

Q: What about the “PgACC glutamate activity with treatment versus HCs” value (high glutamate sample, memantine group) of the same compound?
A: The value was “not significantly different from HCs”.

Q: And the “Change with treatment in PgACC glutamate activity, baseline to endpoint” value (from here on “Change with treatment”) (high glutamate sample, memantine treated group)?
A: Its value is “significant reduction”.

Q: What about the “Change with treatment” value (normal-glutamate sample) of the same compound?
A: The value was “did not change significantly”.

Q: And the “Change with treatment” value (unselected sample of ASD, memantine treated group)?
A: Its value is “significant reduction”.
